Patent US8784860B2 (Cordis Corporation, priority 2005, dated 2014)
Entries after “also recorded” stand apart in the source; their conditions may differ.

Legend:
[1] = Liquid formulations: drug concentration by liquid chromatography and visual observation; format: physicochemical; conditions: water, ethanol less than two percent, Vitamin E TPGS
Procedure: The concentrations of each constituent were determined by liquid chromatography and are presented as weight by volume figures.
The liquid formulation was created utilizing the following process. Two hundred milligrams of sirolimus and two grams of ethanol were added to a pre-weighed twenty milliliter scintillation vial. The vial was vortexed and sonicated until the sirolimus was completely dissolved. Approximately six hundred milligrams of Vitamin E TPGS was then added to the solution of ethanol and sirolimus. The vial was vortexed again until a clear yellowish solution was obtained. Nitrogen gas was then used to reduce the amount of ethanol in the vial to approximately two hundred twenty-nine milligrams. In a separate vial, three hundred milligrams of Vitamin E TPGS was dissolved in eleven milliliters of purified water while undergoing vortexing. The Vitamin E TPGS and water solution was then added to the first vial containing the sirolimus, Vitamin E TPGS and ethanol. The first vial was then vortexed vigorously and continuously for three minutes.
In another exemplary embodiment, a liquid formulation of CCI-779, a sirolimus analog, is prepared utilizing ethanol, Vitamin E TPGS and water. This liquid formulation was made under similar conditions as to that described above. […]

[2] = tested on: human coronary artery smooth muscle cells; experiment: Anti-proliferative activity in synchronized cultured coronary artery smooth muscle cells, two percent fetal bovine serum; format: cell-based
From the text: (§1) The multiple curves represent various concentrations of topotecan ranging from zero to three hundred nanomolar concentrations.
(§2) The multiple curves represent various concentrations of etoposide ranging from zero to eight hundred nanomolar concentrations.
Referring to FIG. 66, there is illustrated, in graphical format, the anti-proliferative activity of Panzem® in synchronized cultured human coronary artery smooth muscle cells stimulated with two percent fetal bovine serum.
The multiple curves represent various concentrations of Panzem® ranging from zero to 100 micromolar concentrations.

[3] = tested on: human coronary artery smooth muscle cell; conditions: concentrations 6.6 nanomolar up to 30,000.00 nanomolar
From the text: In vitro cytotoxicity tests or assays may be utilized to determine if drugs, agents and/or compounds are potentially toxic and the level of toxicity. Essentially, in vitro cytotoxicity assays determine acute necrotic effects by a drug causing direct cellular damage. The idea behind these assays is that toxic chemicals affect basic functions of cells which are common to all cells. […] There are a number of different assays that may be utilized. In the present invention, the cytotoxicity assay utilized is based upon the measurement of cellular metabolic activity. A reduction in metabolic activity is an indication of cellular damage. Tests that can measure metabolic function measure cellular ATP levels or mitochondrial activity via MTS metabolism. FIG. 69 is a graphical representation of the results of an MTS assay of Panzem®.

bovine blood = experiment: In vitro bovine blood loop model (In 111 labeled platelets); conditions: sirolimus/cilostazol coated stents versus control
From the text: The anti-thrombotic efficacy of the above-described three configurations is illustrated in FIG. 80. FIG. 80 illustrates the anti-thrombotic properties of the sirolimus/cilostazol combination coatings described above in an in vitro bovine blood loop model. In the in vitro bovine blood loop model, fresh bovine blood is heparinized to adjust for acute clotting time (ACT) of about two hundred (200) seconds. The platelet content in the blood is labeled through the use of Indium 111. In the study, a stent is deployed in a silicone tube, which is part of a closed loop system for blood circulation. The heparinzed blood is circulated through the closed loop system by means of a circulating pump. Blood clots and thrombus builds up on a stent surface over time and reduces the flow rate of blood through the stented loop. […] The control drug eluting stent is the Cypher® sirolimus eluting coronary stent available from Cordis Corporation. Bar 8004 is a stent coated with heparin and is available from Cordis Corporation under the […]® on the Bx Velocity® coronary stent trademark. Bar 8006 is a stent configured as set forth with respect to the architecture illustrated in FIG. 75. Bar 8008 is a stent configured as set forth with respect to the architecture illustrated in FIG. 77. Bar 8010 is a stent configured as set forth with respect to the architecture illustrated in FIG. 79.

[4] = Porcine pharmacokinetics studies: in vivo release kinetics from stent coatings; conditions: for drug remained in the drug coating: after eight (8) days of implantation, porcine, single layer sirolimus + cilostazol in EVA/BMA, 100 μg BMA overcoat (FIG. 83)
From the text: The topcoat is two hundred micro grams.
FIG. 61 is a graphical representation of the in vivo release kinetics of cladribine from a polymeric coating on Bx Velocity® stents, available from Cordis Corporation, implanted in a Yorkshire pig. The basecoat comprises an 85/15 ratio of PVDF and HFP and cladribine for a total combined weight of one thousand eight hundred micrograms (cladribine comprising thirty percent of the total weight). The topcoat comprises an 85/15 ratio of PVDF/HFP and no cladribine. The total weight of the topcoat is three hundred micrograms.
(§3) The basecoat is applied to Bx Velocity® stents and implanted into Yorkshire pigs.
as §3
Another critical parameter for the performance of the thrombus resistance of a device coated with cilostazol is the duration of the drug release from the coating. This is of particular significance in the two weeks after device implantation. […] The purpose of the porcine PK study is to assess the local pharmacokinetics of a drug eluting stent at a given implantation time. Normally three stents are implanted in three different coronary arteries in a pig for a given time point and then retrieved for total drug recovery analysis. The stents are retrieved at predetermined time points; namely, 1, 3 and 8 days. The stents are extracted and the total amount of drug remaining on the stents is determined by analysis utilizing HPLC (high performance liquid chromatography) for total drug amount. The difference between the original amount of drug on the stent and the amount of drug retrieved at a given time represents the amount of drug released in that period. The continuous release of drug into surrounding arterial tissue is what prevents the neointimal growth and restenosis in the coronary artery. A normal plot represents the percentage of total drug released (%, y-axis) vs. time of implantation (day, x-axis). […] Curve 8102 represents cilostazol and curve 8104 represents sirolimus. […] In this exemplary configuration, the stent 8300 is coated with two layers. The first layer 8302 comprises a combination of sirolimus, cilostazol and a copolymer matrix of EVA/BMA. The second layer or diffusion overcoat 8304 comprises only BMA. More specifically, in this embodiment, the first layer 8302 comprises a combination of sirolimus and cilastazol that is forty-five (45) percent by weight of the total weight of the first layer 8302 and an EVA/BMA copolymer matrix that is fifty-five (55) percent by weight of the total weight of the first layer 8302. The diffusion overcoat comprises one hundred (100 μg) micrograms of BMA.

[5] = In vitro release kinetics from stent coatings; format: physicochemical; conditions: for in vitro release rate of cladribine, effect of topcoat: twenty-five percent ethanol/water, room temperature
[6] = tested on: human smooth muscle cells; experiment: Cladribine Example: PDGF-stimulated proliferation of smooth muscle cells; format: cell-based; conditions: from IC50 values 23 and 40 nanomolar
Procedure: To assess the ability of cladribine to prevent cell proliferation, human smooth muscle or endothelial cells (Clonetics, Walkersville, Md.) were seeded at a density of 2000 cells/cm^2 (approximately 3600 cells/well) into each well of 12-well plates and cultured with 1.5 ml of growth medium containing five percent fetal calf serum (FCS). After twenty-four hours, the growth medium was changed and fresh medium containing 10 ng/ml platelet-derived growth factor AB (PDGF AB; LIFE Technologies), as well as various concentrations of cladribine (0.001-10,000 nM) were added with triplicate wells. Medium was replaced with fresh cladribine-containing medium after three days. On day six, cells were detached by trypsinization to yield a cell suspension, lightly centrifuged to pellet and then counted manually using a Neubauer hemocytometer system. Cell viability was assessed by trypan blue exclusion.

[7] = tested on: human coronary artery smooth muscle cells; experiment: Anti-proliferative activity in non-synchronized cultured coronary artery smooth muscle cells, two percent fetal bovine serum; format: cell-based
From the text: The multiple curves represent various concentrations of mycophenolic acid ranging from zero to one thousand nanomolar concentrations.
FIG. 58 illustrates, in graphical format, the anti-proliferative activity of cladribine in non-synchronized cultured human coronary artery smooth muscle cells stimulated with two percent fetal bovine serum.
The multiple curves represent various concentrations of cladribine ranging from zero to nine hundred nanomolar concentrations.

cell viability = experiment: Cell viability assay; format: cell-based
From the text: as §1, §2

[8] = tested on: human coronary artery smooth muscle cell; experiment: In vitro cell culture study of coronary artery smooth muscle cell proliferation (trichostatin A); format: cell-based
From the text: FIG. 51 is a graph of the inhibition of coronary artery smooth muscle cells by trichostatin A in a cell culture study.

tumor cell lines = tumor cell lines (Woo et al., 2002); cited from earlier work
[9] = 600 μg EVA/BMA basecoat with 30% rapamycin and 30% mycophenolic acid, no, 100 or 200 μg BMA topcoat

CO[C@H]1C[C@@H]2CC[C@@H](C)[C@@](O)(O2)C(=O)C(=O)N2CCCC[C@H]2C(=O)O[C@H]([C@H](C)C[C@@H]2CC[C@@H](OC(=O)C(C)(CO)CO)[C@H](OC)C2)CC(=O)[C@H](C)/C=C(\C)[C@@H](O)[C@@H](OC)C(=O)[C@H](C)C[C@H](C)/C=C/C=C/C=C/1C [CCI-779]
concentration of CCI-779 in the final solution (HPLC) [1]: 15000 µg/mL

COc1cc2c(cc1O)CC[C@@H]1[C@@H]2CC[C@]2(C)[C@@H](O)CC[C@@H]12 [Panzem®, 2-methoxyestradiol]
effect of Panzem on the anti-proliferative activity of rapamycin ([2]; Panzem 0.813 to 100 micromolar added to rapamycin): potentiation of rapamycin by Panzem®; also recorded: increases the percent of inhibition of rapamycin alone
anti-proliferative activity (single agent) ([2]; synchronized human coronary artery smooth muscle cells, two percent fetal bovine serum): extremely effective inhibitor of human coronary artery smooth muscle cell proliferation in vitro
cytotoxicity, MTS assay [3]: do not reduce human coronary artery smooth muscle cell survival

O=C1CCc2cc(OCCCCc3nnnn3C3CCCCC3)ccc2N1 [cilostazol, 6[4-(1-cyclohexyl-1H-tetrazol-5-yl)-butoxy]-3,4-dihydro-2-(1H)-quinolinone]
thrombus formation (bovine blood): significantly reduces thrombus formation
drug remained in the drug coating [4]: ~80%
in vitro drug release rate, 200 μg versus 100 μg BMA diffusion overcoat ([5]; layered sirolimus/cilostazol coatings of FIGS. 75 and 77): comparatively slower from the configuration comprising the thicker diffusion overcoat of BMA
in vitro release ([5]; single layer sirolimus + cilostazol in EVA/BMA, 100 μg BMA overcoat (FIG. 83)): ~35%

Nc1nc(Cl)nc2c1ncn2[C@H]1C[C@H](O)[C@@H](CO)O1 [cladribine, 2-chlorodeoxyadenosine]
potency as inhibitor of smooth muscle cells relative to endothelial cells [6]: approximately twice
effect of cladribine on the anti-proliferative rapamycin dose response curves ([7]; cladribine 56.25 to 900 nanomolar added to rapamycin): potentiate the anti-proliferative activity of rapamycin; also recorded: increases the percent inhibition of rapamycin alone
inhibition of human coronary artery smooth muscle cell proliferation ([7]; non-synchronized cells, two percent fetal bovine serum): completely inhibits
in vivo elution of cladribine ([4]; Bx Velocity stent, Yorkshire pig, 1800 μg PVDF/HFP (85/15) basecoat with 30% cladribine, 300 μg topcoat): after the first day, the elution of cladribine levels off significantly
in vivo elution of cladribine compared with rapamycin ([4]; EVA/BMA basecoat, 200 μg BMA topcoat, Yorkshire pigs): elutes more rapidly than rapamycin
in vitro release rate of cladribine, effect of topcoat ([5]; non-sterile PVDF/HFP (85/15) coatings): increase in topcoat weight or thickness led to a decrease in the release rate of cladribine
in vitro release rate of cladribine, effect of topcoat ([5]; sterile PVDF/HFP coating): drastic decrease of release rate of cladribine

COc1cc([C@@H]2c3cc4c(cc3[C@@H](O[C@@H]3O[C@@H]5CO[C@@H](C)O[C@H]5[C@H](O)[C@H]3O)[C@H]3COC(=O)[C@H]23)OCO4)cc(OC)c1O [etoposide]
effect of etoposide on the anti-proliferative rapamycin dose response curves ([2]; etoposide 255.7 to eight hundred nanomolar added to rapamycin): potentiate the anti-proliferative activity of rapamycin; also recorded: increases the percent inhibition of rapamycin alone
cytotoxicity in cell viability assay (cell viability; concentrations up to ten micromolar): non-cytotoxic

COc1c(C)c2c(c(O)c1C/C=C(\C)CCC(=O)O)C(=O)OC2 [mycophenolic acid]
effect of mycophenolic acid on the anti-proliferative rapamycin dose response curve ([7]; mycophenolic acid zero to one thousand nanomolar added to rapamycin): potentiates the anti-proliferative activity of rapamycin
in vivo release of mycophenolic acid, effect of topcoat [4, 9]: BMA topcoat does slow the release of mycophenolic acid
in vivo elution of mycophenolic acid compared with rapamycin ([4]; EVA/BMA basecoat, BMA topcoat): elutes more completely over a shorter duration than the rapamycin

CO[C@H]1C[C@@H]2CC[C@@H](C)[C@@](O)(O2)C(=O)C(=O)N2CCCC[C@H]2C(=O)O[C@H]([C@H](C)C[C@@H]2CC[C@@H](O)[C@H](OC)C2)CC(=O)[C@H](C)/C=C(\C)[C@@H](O)[C@@H](OC)C(=O)[C@H](C)C[C@H](C)/C=C/C=C/C=C/1C [rapamycin]
in vivo release of rapamycin, effect of topcoat [4, 9]: BMA topcoat does slow the release of rapamycin
in vivo release rates of rapamycin from three rapamycin/cladribine coatings ([4]; 600 μg EVA/BMA basecoats with varied rapamycin/cladribine loads, 200 μg BMA topcoat, Yorkshire pigs): substantially similar to one another
in vivo release rate of rapamycin compared with mycophenolic acid ([4]; 600 μg PVDF basecoat, 200 μg PVDF topcoat): slower release rate than that of mycophenolic acid
drug remained in the drug coating [4]: ~80%

CC[C@@]1(O)C(=O)OCc2c1cc1n(c2=O)Cc2cc3c(CN(C)C)c(O)ccc3nc2-1 [topotecan]
effect of topotecan on the anti-proliferative rapamycin dose response curves ([2]; topotecan 18.8 to 300 nanomolar added to rapamycin): potentiate the anti-proliferative activity of rapamycin; also recorded: increases the percent inhibition of rapamycin alone
cytotoxicity in cell viability assay (cell viability; concentrations up to one micromolar): non-cytotoxic

CC(/C=C/C(=O)NO)=C\[C@@H](C)C(=O)c1ccc(N(C)C)cc1 [trichostatin A]
inhibition of human coronary artery smooth muscle cell proliferation [8]: completely inhibit
IC50 ([8]; human coronary artery smooth muscle cells, read-out: anti-proliferative IC50): ~6 nM
anti-proliferative IC50's (tumor cell lines): low nM range
